From publication PMC7286914 (2020) come the findings set out here.

What all share (assay): Cy3/quencher fluorescence titration, Langmuir fit
For assay [1], the system named is A-C Mismatch (DNA, aptamer) CACCTGGGGGAGTATTGCGGAGGAAGGTTTTTTTTTTTTTACCCCCAAGTG
The settings on record: 6 mM MgCl2; Na+ (concentration not stated); 10 mM Tris, 10 mM Bis-Tris, 10 mM sodium acetate, pH 8, room temperature; apparent, intramolecular displacement strand competes.

Assay [2] deals with TAT60 (DNA, aptamer) CACCTGGGGGAGTATTGCGGAGGAAGGTTTTGAGGGAAAGAATCATTTCTTTCCCTATGTTTCCCTTTCTTTTTAACCAGGTG
Conditions: 6 mM MgCl2; Na+ (concentration not stated); 10 mM Tris, 10 mM Bis-Tris, 10 mM sodium acetate, pH 7, room temperature; apparent, intramolecular displacement strand competes.

Assay [3] has as its system Combined TAT80/A-C Mismatch (DNA, aptamer) CACCTGGGGGAGTATTGCGGAGGAAGGTTTTGAAGAAAAAGATTGCTCTTTTTCTTATTGTTTCTTTTTCTATTTACCCCCAAGTG
Conditions: 6 mM MgCl2; Na+ (concentration not stated); 10 mM Tris, 10 mM Bis-Tris, 10 mM sodium acetate, pH 6.5, room temperature; apparent, intramolecular displacement strand competes.

Assay [4] has as its system A-G Mismatch (DNA, aptamer) CACCTGGGGGAGTATTGCGGAGGAAGGTTTTTTTTTTTTTTTCCCAAGGTG
Conditions: 6 mM MgCl2; Na+ (concentration not stated); 10 mM Tris, 10 mM Bis-Tris, 10 mM sodium acetate, pH 7.5, room temperature; apparent, intramolecular displacement strand competes.

For `Nc1ncnc2c1ncn2[C@@H]1O[C@H](COP(=O)(O)OP(=O)(O)OP(=O)(O)O)[C@@H](O)[C@H]1O`, the KDeff is 0.30 (95% CI 0.25–0.36) mM in assay [1], 3.9 (95% CI 3.2–4.8) mM in assay [2], 32 (95% CI 27–39) μM in assay [3] and 0.32 (95% CI 0.27–0.37) mM in assay [4].
